Assay [1] has as its system Aedes aegypti. The assay is described as follows: Mosquitocidal activity against Aedes aegypti fourth instar larvae assessed as mortality at 50 ug/mL after 18 hrs. In kind it is functional, organism-based.
The test system of assay [2] is Aedes aegypti. The assay can be described thus: Mosquitocidal activity against Aedes aegypti fourth instar larvae. The assay is classed as functional.
The target in assay [3] is T1, DNA topoisomerase 1 (Saccharomyces cerevisiae S288c) (UniProt P04786).
T1 sequence (whole entry): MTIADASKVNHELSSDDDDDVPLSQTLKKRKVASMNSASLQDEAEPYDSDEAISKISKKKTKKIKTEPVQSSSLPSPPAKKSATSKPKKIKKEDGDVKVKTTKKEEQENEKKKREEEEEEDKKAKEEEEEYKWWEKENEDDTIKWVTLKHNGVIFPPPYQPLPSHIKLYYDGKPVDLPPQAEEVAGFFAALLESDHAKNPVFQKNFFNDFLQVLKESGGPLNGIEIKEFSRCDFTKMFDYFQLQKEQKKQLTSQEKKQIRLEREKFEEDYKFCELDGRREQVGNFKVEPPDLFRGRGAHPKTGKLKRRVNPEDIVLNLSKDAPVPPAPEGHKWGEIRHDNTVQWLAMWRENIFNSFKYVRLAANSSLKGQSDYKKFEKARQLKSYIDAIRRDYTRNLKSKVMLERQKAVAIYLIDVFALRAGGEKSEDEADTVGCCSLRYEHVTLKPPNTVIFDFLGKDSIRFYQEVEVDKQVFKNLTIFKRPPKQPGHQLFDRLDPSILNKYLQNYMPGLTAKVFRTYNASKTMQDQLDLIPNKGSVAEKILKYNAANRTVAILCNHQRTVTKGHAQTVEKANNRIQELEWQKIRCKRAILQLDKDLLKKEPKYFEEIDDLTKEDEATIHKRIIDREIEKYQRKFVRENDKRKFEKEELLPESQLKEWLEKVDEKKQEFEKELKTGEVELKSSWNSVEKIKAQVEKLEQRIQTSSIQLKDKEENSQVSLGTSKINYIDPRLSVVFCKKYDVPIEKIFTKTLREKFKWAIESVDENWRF
The assay can be described thus: Inhibition of topoisomerase 1 in Saccharomyces cerevisiae JN394 assessed as inhibition of growth at 50 ug/mL after 72 hrs.

Assay [4] deals with T2, DNA topoisomerase 2 (Saccharomyces cerevisiae S288c) (UniProt P06786).
T2 sequence (whole entry): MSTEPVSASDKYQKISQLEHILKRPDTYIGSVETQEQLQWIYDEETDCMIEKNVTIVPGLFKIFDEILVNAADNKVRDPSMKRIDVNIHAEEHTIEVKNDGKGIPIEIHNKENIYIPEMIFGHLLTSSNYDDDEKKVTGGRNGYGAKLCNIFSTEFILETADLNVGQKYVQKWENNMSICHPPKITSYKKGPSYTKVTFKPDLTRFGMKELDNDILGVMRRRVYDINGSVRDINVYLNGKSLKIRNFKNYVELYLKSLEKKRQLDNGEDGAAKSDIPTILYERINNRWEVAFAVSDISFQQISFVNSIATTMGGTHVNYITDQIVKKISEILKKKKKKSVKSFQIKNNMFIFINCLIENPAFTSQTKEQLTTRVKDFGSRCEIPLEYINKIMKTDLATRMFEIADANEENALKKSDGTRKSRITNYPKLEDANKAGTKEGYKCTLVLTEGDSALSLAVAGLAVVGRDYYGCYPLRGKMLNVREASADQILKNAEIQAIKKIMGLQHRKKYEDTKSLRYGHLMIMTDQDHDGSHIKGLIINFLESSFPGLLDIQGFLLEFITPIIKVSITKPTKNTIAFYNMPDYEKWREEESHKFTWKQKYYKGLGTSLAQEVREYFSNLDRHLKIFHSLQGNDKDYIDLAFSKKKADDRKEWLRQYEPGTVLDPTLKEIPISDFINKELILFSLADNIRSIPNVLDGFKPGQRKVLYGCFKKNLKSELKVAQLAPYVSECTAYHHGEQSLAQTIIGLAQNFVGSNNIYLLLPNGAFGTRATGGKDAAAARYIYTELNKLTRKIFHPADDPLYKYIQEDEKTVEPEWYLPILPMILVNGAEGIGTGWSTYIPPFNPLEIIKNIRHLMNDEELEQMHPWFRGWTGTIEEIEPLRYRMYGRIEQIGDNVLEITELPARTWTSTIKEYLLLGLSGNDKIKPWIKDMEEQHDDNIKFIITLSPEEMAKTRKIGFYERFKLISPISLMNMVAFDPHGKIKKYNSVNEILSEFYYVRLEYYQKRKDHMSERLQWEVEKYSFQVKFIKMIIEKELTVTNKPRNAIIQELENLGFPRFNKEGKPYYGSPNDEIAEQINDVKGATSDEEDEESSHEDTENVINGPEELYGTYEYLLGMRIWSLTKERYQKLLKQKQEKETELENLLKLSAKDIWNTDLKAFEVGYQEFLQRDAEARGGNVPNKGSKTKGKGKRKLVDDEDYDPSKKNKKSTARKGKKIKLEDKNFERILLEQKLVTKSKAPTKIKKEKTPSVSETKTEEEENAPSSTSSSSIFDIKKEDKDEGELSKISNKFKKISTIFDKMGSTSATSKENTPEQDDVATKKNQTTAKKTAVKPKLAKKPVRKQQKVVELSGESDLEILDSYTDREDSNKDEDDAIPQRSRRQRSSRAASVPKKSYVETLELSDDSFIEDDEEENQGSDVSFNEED
The assay is described as follows: Inhibition of topoisomerase 2 in Saccharomyces cerevisiae JN394t2-5 assessed as inhibition of growth at 50 ug/mL after 72 hrs.

Assay [5] has as its target T1, DNA topoisomerase 1 (Saccharomyces cerevisiae S288c). The assay is described as follows: Inhibition of topoisomerase 1 in Saccharomyces cerevisiae JN394t2-5 assessed as inhibition of growth at 50 ug/mL after 72 hrs.
Assay [6] has as its target T2, DNA topoisomerase 2 (Saccharomyces cerevisiae S288c). The assay is described as follows: Inhibition of topoisomerase 2 in Saccharomyces cerevisiae JN394t-1 assessed as inhibition of growth at 50 ug/mL after 72 hrs.
In assay [7] the target is T1, DNA topoisomerase 1 (Saccharomyces cerevisiae S288c). The assay is described as follows: Inhibition of topoisomerase 1 in Saccharomyces cerevisiae JN394t-1 assessed as inhibition of growth at 50 ug/mL after 72 hrs.
The target of assay [8] is T2, DNA topoisomerase 2 (Saccharomyces cerevisiae S288c). The assay is described as follows: Inhibition of topoisomerase 2 in Saccharomyces cerevisiae JN394 assessed as inhibition of growth at 50 ug/mL after 72 hrs.
For assay [9], the system named is Aedes aegypti. The assay is described as follows: Mosquitocidal activity against Aedes aegypti fourth instar larvae assessed as mortality at 10 ug/mL after 48 hrs. The assay is classed as functional.
Assay [10] relates to Candida albicans. The assay is described as follows: Antimicrobial activity against Candida albicans at 1 ug/mL. The assay is classed as functional, organism-based.
The subject of assay [11] is Candida parapsilosis. The assay can be described thus: Antimicrobial activity against Candida parapsilosis at 25 ug/mL. The assay is classed as functional, organism-based.
In assay [12] the test system is Pichia kudriavzevii. The assay can be described thus: Antimicrobial activity against Candida krusei at 25 ug/mL. In kind it is functional, organism-based.
Assay [13] addresses T1, DNA topoisomerase 1 (Saccharomyces cerevisiae S288c). The assay can be described thus: Inhibition of topoisomerase 1 in Saccharomyces cerevisiae JN394t-1 assessed as inhibition of growth at 25 ug/mL after 72 hrs.
The target is the same in assay [14]. The assay can be described thus: Inhibition of topoisomerase 1 in Saccharomyces cerevisiae JN394 assessed as inhibition of growth at 25 ug/mL after 72 hrs.
Assay [15] addresses T2, DNA topoisomerase 2 (Saccharomyces cerevisiae S288c). The assay can be described thus: Inhibition of topoisomerase 2 in Saccharomyces cerevisiae JN394t2-5 assessed as inhibition of growth at 25 ug/mL after 72 hrs.
Assay [16] addresses T1, DNA topoisomerase 1 (Saccharomyces cerevisiae S288c). The assay can be described thus: Inhibition of topoisomerase 1 in Saccharomyces cerevisiae JN394t2-5 assessed as inhibition of growth at 25 ug/mL after 72 hrs.
Assay [17] addresses T2, DNA topoisomerase 2 (Saccharomyces cerevisiae S288c). The assay can be described thus: Inhibition of topoisomerase 2 in Saccharomyces cerevisiae JN394t-1 assessed as inhibition of growth at 25 ug/mL after 72 hrs.
Assay [18] shares this target. The assay is described as follows: Inhibition of topoisomerase 2 in Saccharomyces cerevisiae JN394 assessed as inhibition of growth at 25 ug/mL after 72 hrs.

The source of these data is ChEMBL document CHEMBL1158668, “Novel bioactivities of Curcuma longa constituents” (1998).

Structures are written as SMILES. Activity calls are given as the source filed them. No cut-off for these calls is given here.

As to `CC(C)=CC(=O)CC(C)c1ccc(C)cc1` (centres undefined), the result in assay [1] was Active. Besides, in assay [2], the LD100 worked out at 50 µg/mL.
With `COc1cc(/C=C/C(O)=C/C(=O)/C=C/c2ccc(O)cc2)ccc1O`, the result in assay [3], in assay [4], in assay [5], in assay [6], in [7] and in assay [8] was Active.
Take `C=C1CC[C@H]2C(C)(C)CCC[C@]2(C)[C@H]1C/C=C(\C=O)CC=O` [LABDADIENEDIAL]: the Activity in assay [9] was determined as 100%. Besides, the outcome in [10], in assay [11] and in [12] was Active.
On to `O=C(/C=C/c1ccc(O)cc1)CC(=O)/C=C/c1ccc(O)cc1`, for which the outcome in assay [3], in assay [13], in [14], in [4], in assay [5] and in assay [6] was Active. In addition, the outcome in assay [7], in assay [15], in assay [16], in assay [17], in assay [18] and in assay [8] was Active.
